This note sets out measurements from patent publication US20240109917A1 (ACTELION PHARMACEUTICALS LTD, priority 2020, published 2024).

Assay [1] deals with His6-TEV-PDGFRβ (557-1016) (Homo sapiens (Human), UniProt P09619). Nature of the assay: PDGFRβ HTRF Assay. To be noted: read-out: PDGFR HTRF IC50. Type of assay: biochemical. How it is done:
Instrumentation: a. Compound liquid handling: LabCyte Echo; b. Reagent liquid handling: Thermo Scientific Multidrop Combi; c. BMG PHERAStar multilabel plate reader.
Protein Reagent: His6-TEV-PDGFRβ Protein Prep prepared at Accelagen.
(§1) II. Methods and Procedures
Assay buffer stock solution, contains 50 mM Hepes, 10 mM MgCl2, 1 mM EGTA, and 0.01% Brij-35, 0.01% ovalbumin, 2 mM DTT at pH 7.5, in molecular biology grade water. Store at room temperature.
DTT, 2 M in molecular biology grade water, store at −20° C. in aliquots.
Ovalbumin, 10% or 100 mg/mL, prepare fresh on experimental day.
PDGFRβ, 116 μM (PDGFRb_08 Prep 02), produced at Accelagen. Store at −80° C. in aliquots.
TK-biotin peptide, […] in molecular biology grade water, store at −20° C. in aliquots.
ATP, 100 mM in molecular biology grade water, store at −20° C. in aliquots.
HTRF KinEASE-TK kit: Allow the contents of the Cisbio kit to warm up to room temperature before use. This kit contains HTRF detection buffer, TK-Antibody labeled with Eu^3+-cryptate, TK-substrate biotin and Streptavidin-XL665.
TK Substrate-Biotin, reconstitute 500 μg lyopholized with 574 μL molecular biology grade water to prepare a 500 μM stock; After use, aliquot the rest and store at −20° C.
TK Antibody-Cryptate, reconstitute lyophilized with 1 mL of molecular biology grade water (100× solution) then add 99 mL detection buffer to prepare a ready to use TK-antibody-cryptate solution; the concentration of the TK-antibody-cryptate reagent is not known. After use, aliquot the rest and store at −20° C.
Streptavidin-XL665, reconstitute 3 mg lyophilized with 3 mL molecular biology grade water to prepare a 1 mg/mL or 16.67 μM stock; MW=60 kDa; After use, aliquot the rest and store at −20° C.
Freshly Prepared Solutions:
Assay buffer. Dilute 5× Kinase buffer 5-fold with molecular biology grade water and add DTT to 2 mM and ovalbumin to 0.1 mg/mL (or 0.01%).
2× protein solution. Make a working solution of […] PDGFRβ in assay buffer. Keep on ice until use to maintain enzyme stability.
2× substrate solution. Make a working solution of 1.6 mM ATP and 1 μM TK-substrate biotin peptide in assay buffer.
3× quench/detection solution. Make a working solution of 0.1875 μM SA-XL665 and the TK-antibody cryptate diluted by 12 of total quench/detection volume in assay buffer.
Keep final streptavidin/biotin ratio at 1 to 8.
Example of 3× quench/detection solution preparation: 8 mL total volume.
TK antibody-cryptate in detection buffer—4000 μL
The kinase reaction is stopped by the addition of the detection reagents which contain EDTA (detection step).
Assay in white ProxiPlate 384-well
Step 1. Dispensing inhibitors/DMSO and low control: Using the ECHO 555 acoustic dispenser, spot desired compound serial dilutions in DMSO, NEAT DMSO to represent the uninhibited enzyme control, and 10 μM final [imatinib] to the represent the 100% inhibited enzyme control
Step 2. PDGFRβ E+I pre-incubation: Add 2 μL 2× protein solution to columns 1-24 using the Multidrop Combi. Centrifuge at 1000 rpm for 1 min. Incubate 30 min at RT
Step 2. Enzymatic reaction: Add 2 μL substrate solution to columns 1-24 to initiate the reaction using the Multidrop Combi; cover/seal the assay plate to reduce evaporation. Centrifuge at 1000 rpm for 1 min. Incubate at room temperature for 3 hours.
Step 3. Quench/Detection: Add 2 μl 3× quench/detection solution to columns 1-24 using the Multidrop Combi; cover/seal the plate. Centrifuge 1 min 1000 rpm. Incubate at RT for 60 min. Read the plate in PHERAstar (or similar instrument) on HTRF setting at excitation 337 nm—dual emission—665/620 nm ratio.
(§2) III. Calculations and Formulas
HTRF ratio values calculated by the instrument (Ratio is acceptor counts/donor counts*10,000) is exported from the plate reader and used in data analysis. […] Assay statistics can include Robust Z′ and Signal to Background.
% Inhibition Calculation: Percent inhibition will be calculated for sample wells based on the equation: […]
On the technique in general: TR-FRET usually uses a lanthanide donor and a delayed reading to cut background.

Assay [2] concerns the target Tb-labeled inactive PDGFRβ (Homo sapiens (Human), UniProt P09619). Nature of the assay: PDGFRβ LanthaScreen Assay. It counts as binding. To be noted: read-out: PDGFR Lantha IC50.
Assay [3] concerns the target VEGFR2, unphosphorylated (Homo sapiens (Human), UniProt P35968). Nature of the assay: VEGFR ADP GLO Assay. Type of assay: biochemical. How it is done: as §1
Assay buffer stock contains 50 mM HEPES pH7.5, 10 mM MgCl2, 0.01% Brij-35, and 1 mM EGTA.
Unphosphorylated VEGFR2. […] Store at −80° C. in aliquots.
Sonicate 10 mg/ml Srctide solution for 10 minutes and then vacuum filter.
Freshly Prepared Solutions
2× kinase solution. Make a working solution of 10 nM unphosphorylated VEGFR2 in Assay buffer. Vacuum filter 2× kinase solution prior to running assay. Keep on ice until use.
2× substrate/ATP solution. Make a working solution of 2 mg/mL srctide and 2.4 mM ATP in Assay buffer. Keep on ice until use.
Step 1. Dispensing inhibitors/controls: Using Echo, dispense 10 nL/well compound serial dilutions in DMSO to columns 1-22 (in 384-well plates) or columns 1-44 (in 1536-well plates). Dilution series=11 pt, 3-fold dilutions. The top compound concentration in the source plate is 4 mM. The top compound concentration in the assay plate is 10 uM. Using Echo, dispense 10 nl/well DMSO to column 23 (in 384-well plates) or columns 45-47 (in 1536-well plates). […] These wells will serve as positive control wells.
Step 2. Pre-incubation of inhibitors with kinase: Add 2 μL/well 2× kinase solution. Centrifuge at 1000 rpm for 1 min. Incubate at room temperature for 30 min.
Step 3. Kinase cascade reaction: Add 2 μL/well 2× substrate/ATP solution to initiate kinase reactions. Centrifuge at 1000 rpm for 1 min. Incubate at room temperature for 180 min.
Final concentrations of components in the assay:
Step 4. Quench: Add 2 uL/well ADP Glo Reagent+0.05% CHAPS. Centrifuge at 1000 rpm for 1 min; Incubate at room temperature for one hour.
Step 5. Detection: Add 2 uL/well Kinase Detection Reagent+0.05% CHAPS. Centrifuge at 1000 rpm for 1 min; Incubate at room temperature for 1 hour; Read Luminescence on a plate reader.
as §2
IC50 values are determined from a 4-parameter fit, using the following equation: Y=Bottom+(Top−Bottom)/(1+10^(Log IC50-X)*Hill slope) where X=log10 of the compound concentration; top can be defined by PC; bottom defined by NC.
A general note: In ADP-Glo the light output rises with the ADP produced.

Chain of Tb-labeled inactive PDGFRβ (P09619 33-1106): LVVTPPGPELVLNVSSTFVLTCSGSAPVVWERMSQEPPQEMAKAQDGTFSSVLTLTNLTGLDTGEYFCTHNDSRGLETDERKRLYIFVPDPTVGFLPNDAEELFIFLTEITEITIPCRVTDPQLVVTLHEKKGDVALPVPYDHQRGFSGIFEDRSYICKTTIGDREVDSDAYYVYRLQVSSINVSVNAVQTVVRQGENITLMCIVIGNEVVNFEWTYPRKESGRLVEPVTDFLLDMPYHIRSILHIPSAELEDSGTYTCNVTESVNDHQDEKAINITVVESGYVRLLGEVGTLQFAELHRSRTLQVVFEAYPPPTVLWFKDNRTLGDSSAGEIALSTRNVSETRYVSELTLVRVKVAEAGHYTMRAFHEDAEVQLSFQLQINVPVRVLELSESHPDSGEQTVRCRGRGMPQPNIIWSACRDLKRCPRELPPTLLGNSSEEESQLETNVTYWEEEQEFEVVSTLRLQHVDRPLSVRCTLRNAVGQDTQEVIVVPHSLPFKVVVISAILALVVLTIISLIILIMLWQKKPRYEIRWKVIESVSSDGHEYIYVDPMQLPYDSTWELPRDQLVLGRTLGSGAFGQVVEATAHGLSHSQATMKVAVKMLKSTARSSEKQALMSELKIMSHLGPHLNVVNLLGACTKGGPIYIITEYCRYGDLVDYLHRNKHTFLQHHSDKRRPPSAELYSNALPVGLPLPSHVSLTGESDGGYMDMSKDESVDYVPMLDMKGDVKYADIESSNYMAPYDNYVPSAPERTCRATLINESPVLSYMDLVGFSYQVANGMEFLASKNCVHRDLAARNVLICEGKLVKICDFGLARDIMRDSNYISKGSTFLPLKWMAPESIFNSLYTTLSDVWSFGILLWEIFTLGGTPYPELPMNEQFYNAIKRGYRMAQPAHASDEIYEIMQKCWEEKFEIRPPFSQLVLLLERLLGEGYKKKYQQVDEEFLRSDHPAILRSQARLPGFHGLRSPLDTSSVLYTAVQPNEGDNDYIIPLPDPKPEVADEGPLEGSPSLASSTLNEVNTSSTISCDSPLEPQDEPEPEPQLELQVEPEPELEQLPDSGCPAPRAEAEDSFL
Chain of His6-TEV-PDGFRβ (557-1016) (P09619 557-1016): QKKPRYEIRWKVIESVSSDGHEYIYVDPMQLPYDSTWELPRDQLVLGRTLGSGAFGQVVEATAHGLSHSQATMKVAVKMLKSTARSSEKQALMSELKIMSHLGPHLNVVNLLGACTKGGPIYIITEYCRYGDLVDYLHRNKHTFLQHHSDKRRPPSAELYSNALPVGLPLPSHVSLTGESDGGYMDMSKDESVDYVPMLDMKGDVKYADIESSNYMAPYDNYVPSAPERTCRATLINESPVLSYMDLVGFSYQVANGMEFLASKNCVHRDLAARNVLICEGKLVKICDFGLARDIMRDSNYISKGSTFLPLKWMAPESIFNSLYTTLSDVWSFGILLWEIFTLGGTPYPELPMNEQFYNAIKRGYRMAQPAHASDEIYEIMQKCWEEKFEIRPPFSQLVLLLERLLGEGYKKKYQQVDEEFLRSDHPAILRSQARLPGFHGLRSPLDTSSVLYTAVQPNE
Chain of VEGFR2, unphosphorylated (P35968 20-1356): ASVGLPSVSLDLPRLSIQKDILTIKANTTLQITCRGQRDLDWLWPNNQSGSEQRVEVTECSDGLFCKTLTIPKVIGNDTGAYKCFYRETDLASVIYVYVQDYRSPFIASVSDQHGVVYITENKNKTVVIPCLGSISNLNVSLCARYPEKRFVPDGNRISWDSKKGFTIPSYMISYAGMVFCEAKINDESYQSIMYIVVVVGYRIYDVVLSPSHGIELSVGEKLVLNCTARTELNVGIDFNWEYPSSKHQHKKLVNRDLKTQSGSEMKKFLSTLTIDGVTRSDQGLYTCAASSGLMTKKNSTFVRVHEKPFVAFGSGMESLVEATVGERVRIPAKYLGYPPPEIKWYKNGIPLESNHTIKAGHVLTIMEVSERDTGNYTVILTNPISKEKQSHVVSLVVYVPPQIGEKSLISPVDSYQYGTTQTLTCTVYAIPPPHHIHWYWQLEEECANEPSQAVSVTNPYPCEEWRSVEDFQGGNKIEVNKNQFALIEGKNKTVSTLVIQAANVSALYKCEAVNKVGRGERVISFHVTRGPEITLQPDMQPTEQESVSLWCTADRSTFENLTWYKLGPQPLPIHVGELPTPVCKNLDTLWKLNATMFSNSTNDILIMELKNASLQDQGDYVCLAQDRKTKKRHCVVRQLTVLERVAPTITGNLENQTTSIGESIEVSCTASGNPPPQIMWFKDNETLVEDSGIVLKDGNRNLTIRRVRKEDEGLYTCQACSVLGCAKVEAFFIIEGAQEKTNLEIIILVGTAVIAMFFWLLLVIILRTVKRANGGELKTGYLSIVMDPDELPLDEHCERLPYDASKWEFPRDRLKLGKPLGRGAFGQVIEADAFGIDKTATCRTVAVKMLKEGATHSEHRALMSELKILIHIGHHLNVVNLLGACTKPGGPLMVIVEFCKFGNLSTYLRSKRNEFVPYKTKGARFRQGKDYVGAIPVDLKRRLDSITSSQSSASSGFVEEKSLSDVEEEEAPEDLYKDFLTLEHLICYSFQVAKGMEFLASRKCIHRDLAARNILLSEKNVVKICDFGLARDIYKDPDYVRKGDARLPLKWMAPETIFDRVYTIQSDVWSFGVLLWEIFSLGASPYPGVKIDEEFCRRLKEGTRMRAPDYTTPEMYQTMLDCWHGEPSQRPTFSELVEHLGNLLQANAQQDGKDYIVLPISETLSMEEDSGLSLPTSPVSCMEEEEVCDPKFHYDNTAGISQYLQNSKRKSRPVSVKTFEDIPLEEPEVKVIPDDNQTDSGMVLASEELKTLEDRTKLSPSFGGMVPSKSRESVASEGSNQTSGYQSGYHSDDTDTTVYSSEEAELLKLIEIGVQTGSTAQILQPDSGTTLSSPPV

For `Cc1ncc(C(=O)NCCN2CCCC2(C)C)cc1NC(=O)c1cnn2cc(-c3ccc(N)nc3)sc12` [Example 130, 2-(6-aminopyridin-3-yl)-N-(5-((2-(2,2-dimethylpyrrolidin-1-yl)ethyl)carbamoyl)-2-methylpyridin-3-yl)pyrazolo[5,1-b]thiazole-7-carboxamide], the half-maximal inhibitory concentration (IC50) – broadly, the concentration that gives 50% inhibition – was 0.5 nM in assay [1], 4.3 nM in assay [2] and > 7500 nM in assay [3].
`Cc1ncc(C(=O)NCCN2CCCC2(C)C)cc1NC(=O)c1cnn2cc(-c3cnn(C)n3)sc12` [Example 131, N-(5-((2-(2,2-dimethylpyrrolidin-1-yl)ethyl)carbamoyl)-2-methylpyridin-3-yl)-2-(2-methyl-2H-1,2,3-triazol-4-yl)pyrazolo[5,1-b]thiazole-7-carboxamide]: the IC50 in assay [1] was 1.7 nM; in assay [2], 9.1 nM; in assay [3], > 7500 nM.
The matching figures for `Cc1ncc(C(=O)NCCN2CCCC2(C)C)cc1NC(=O)c1cnn2cc(-c3ccc(C(=O)O)cc3)sc12` [Example 133, 4-(7-((5-((2-(2,2-dimethylpyrrolidin-1-yl)ethyl)carbamoyl)-2-methylpyridin-3-yl)carbamoyl)pyrazolo[5,1-b]thiazol-2-yl)benzoic acid]: 1.5 nM, 6.3 nM and > 7500 nM.
The matching figures for `Cc1ncc(C(=O)NCCN2CCCC2(C)C)cc1NC(=O)c1cnn2cc(-c3cccc(C(=O)O)c3)sc12` [Example 134, 3-(7-((5-((2-(2,2-dimethylpyrrolidin-1-yl)ethyl)carbamoyl)-2-methylpyridin-3-yl)carbamoyl)pyrazolo[5,1-b]thiazol-2-yl)benzoic acid]: 2.9 nM, 13.9 nM and > 7500 nM.
The matching figures for `Cc1ncc(C(=O)NCCN2CCCC2(C)C)cc1NC(=O)c1cnn2cc(-c3cccnc3)sc12` [Example 135, N-(5-((2-(2,2-dimethylpyrrolidin-1-yl)ethyl)carbamoyl)-2-methylpyridin-3-yl)-2-(pyridin-3-yl)pyrazolo[5,1-b]thiazole-7-carboxamide]: 1.3 nM, 10.6 nM and > 7500 nM.
For the compound `Cc1ccc(-c2cn3ncc(C(=O)Nc4cc(C(=O)NCCN5CCCC5(C)C)cnc4C)c3s2)cn1` [Example 136, N-(5-((2-(2,2-dimethylpyrrolidin-1-yl)ethyl)carbamoyl)-2-methylpyridin-3-yl)-2-(6-methylpyridin-3-yl)pyrazolo[5,1-b]thiazole-7-carboxamide], the IC50 in assay [1] was 1.4 nM; in assay [2], 1 nM; in assay [3] it was > 7500 nM.
The matching figures for `Cc1ncc(C(=O)NCCN2CCCC2(C)C)cc1NC(=O)c1cnn2cc(-c3ccc(=O)[nH]c3)sc12` [Example 137, N-(5-((2-(2,2-dimethylpyrrolidin-1-yl)ethyl)carbamoyl)-2-methylpyridin-3-yl)-2-(6-oxo-1,6-dihydropyridin-3-yl)pyrazolo[5,1-b]thiazole-7-carboxamide]: 2.2 nM, 24.4 nM and > 2500 nM.
The matching figures for `Cc1ncc(C(=O)NCCN2CCCC2(C)C)cc1NC(=O)c1cnn2cc(-c3ccc(=O)n(C)c3)sc12` [Example 138, N-(5-((2-(2,2-dimethylpyrrolidin-1-yl)ethyl)carbamoyl)-2-methylpyridin-3-yl)-2-(1-methyl-6-oxo-1,6-dihydropyridin-3-yl)pyrazolo[5,1-b]thiazole-7-carboxamide]: 3.7 nM, 39.6 nM and > 7500 nM.
The matching figures for `Cc1ncc(C(=O)NCCN2[C@H](C)CCC[C@@H]2C)cc1NC(=O)c1cnn2cc(-c3cnn(C)c3)sc12` [Example 164]: 1.5 nM, 6.2 nM and > 7500 nM.
As to `Cc1ncc(C(=O)NCCN2CC(C)(C)C2)cc1NC(=O)c1cnn2cc(-c3cnn4c3COCC4)sc12` [Example 489, 2-(6,7-dihydro-4H-pyrazolo[5,1-c][1,4]oxazin-3-yl)-N-(5-((2-(3,3-dimethylazetidin-1-yl)ethyl)carbamoyl)-2-methylpyridin-3-yl)pyrazolo[5,1-b]thiazole-7-carboxamide], the results for the IC50 in assay [1], in assay [2] and in assay [3] were 0.5 nM, 5.5 nM and > 7500 nM, respectively.
The matching figures for `Cc1ncc(C(=O)NCCN2CCCC2(C)C)cc1NC(=O)c1cnn2cc(-c3ccnc(N(C)C)c3)sc12` [Example 490, 2-(2-(dimethylamino)pyridin-4-yl)-N-(5-((2-(2,2-dimethylpyrrolidin-1-yl)ethyl)carbamoyl)-2-methylpyridin-3-yl)pyrazolo[5,1-b]thiazole-7-carboxamide]: 0.3 nM, 2.3 nM and > 7500 nM.
The matching figures for `Cc1ncc(C(=O)NCCNC2CCC2)cc1NC(=O)c1cnn2cc(-c3cnn4c3CCC4)sc12` [Example 491, N-(5-((2-(cyclobutylamino)ethyl)carbamoyl)-2-methylpyridin-3-yl)-2-(5,6-dihydro-4H-pyrrolo[1,2-b]pyrazol-3-yl)pyrazolo[5,1-b]thiazole-7-carboxamide]: 0.3 nM, 4.9 nM and > 7500 nM.
The matching figures for `Cc1ncc(NC(=O)CCC2CCCN2C)cc1NC(=O)c1cnn2cc(-c3cnn(C)c3)sc12` (stereo not drawn) [Example 492, 2-(1-methyl-1H-pyrazol-4-yl)-N-(2-methyl-5-(3-(1-methylpyrrolidin-2-yl)propanamido)pyridin-3-yl)pyrazolo[5,1-b]thiazole-7-carboxamide]: 0.7 nM, 15 nM and > 7500 nM.
